How the values were obtained:
[1] = tested on: human cervical epithelial cells of the HeLa line; assay: Resazurin cell proliferation test, HeLa cells; format: cell-based
Source text: (§1) For cell culture, human cervical epithelial cells of the HeLa line, human epithelial pancreatic adenocarcinoma cells of the BxPC-3 line and healthy Madin-Darby canine kidney epithelial cells of the MDCK line were used in this study. The Resazurin cell proliferation test was applied according to the literature (S. Anoopkumar-Dukie, J. B. Carey, T. Conere, E. O'Sullivan, F. N. van Pelt, A. Allshire, Br J Radiol 2005, 78, 945, DOI: 10.1259/bjr/54004230). As an indicator of the effectiveness of the experimental compounds on cell proliferation, the median inhibitory concentration (IC50) was used. The lower the IC50 value, the higher the activity (in this case, the cytotoxicity).
(§2) Five formula I complexes were tested in this study in comparison to two reference anti-cancer compounds (“Cisplatin” and Doxorubicin complex).

[2] = tested on: human epithelial pancreatic adenocarcinoma cells of the BxPC-3 line; assay: Resazurin cell proliferation test, BxPC-3 cells; format: cell-based
Source text: as §1, §2

[3] = tested on: healthy Madin-Darby canine kidney epithelial cells of the MDCK line; assay: Resazurin cell proliferation test, MDCK cells; format: cell-based
Source text: as §1, §2

[4] = Chemical stability of the complexes (solid, water, physiological medium, sugar syrup; 1H-NMR or UV-vis); format: physicochemical; settings: for Stability in a physiological medium or in a sugar syrup: physiological medium or sugar syrup with 50% by weight, very low concentrations; for Stability in water: 5×10^−3-2×10^−7 M concentration range (K—Mo2O2S2-LCys: down to micromolar concentrations)
Source text: In solid form, the compounds obtained are perfectly stable in air and can be kept without any special conditions for years without any alteration.
The stabilities of the complexes in solution are studied by different techniques (^1H-NMR or UV-vis spectroscopy), the objective being to study their behavior in different media in terms of stability.

[5] = cited from earlier work
[6] = cervical cancer cells, IC50 equal to and greater than 100 μM considered no activity
[7] = pancreatic cancer cells, IC50 equal to and greater than 100 μM considered no activity
[8] = healthy cells, IC50 equal to and greater than 100 μM considered no activity

Row | SMILES | IC50 [1, 6] [µM] | IC50 [2, 7] [µM] | IC50 [3, 8] [µM] | Stability in a physiological medium or in a sugar syrup [4] | Stability in water [4] | also measured
1 | N.N.[Cl][Pt][Cl] [Cisplatin, reference compound] | 3.99 ± 0.33 | 11.2 ± 1.2 | 30.9 ± 1.1 |  |  | 
2 | COc1cccc2c1C(=O)c1c(O)c3c(c(O)c1C2=O)C[C@@](O)(C(=O)CO)C[C@@H]3O[C@H]1C[C@H](N)[C@H](O)[C@H](C)O1 [Doxorubicin, reference compound] |  |  |  |  |  | IC50 ([1]; Homo sapiens, HeLa): 1.31 µM; IC50 ([2]; Homo sapiens, BXPC-3): 3.99 ± 7.9 µM; IC50 ([3]; Canis lupus familiaris, MDCK): 1.48 ± 3.1 µM
3 | N[C@@H](C[S-])C(=O)[O-].N[C@@H](C[S-])C(=O)[O-].[K+].[K+].[O]=[Mo+]12[S][Mo+]1(=[O])[S]2 [K—Mo2O2S2-Cys, K2[Mo2O2S2 (LCys)2]·xH2O] |  |  |  | good stability | without any breakdown | IC50, HeLa [1, 6]: Inactive; IC50, BxPc-3 [2, 7]: Inactive; IC50, MDCK [3, 8]: Inactive
4 | O=C([O-])CN(CCN(CC(=O)[O-])CC(=O)[O-])CC(=O)[O-].[O]=[Mo+]12[S][Mo+]1(=[O])[S]2.c1ccc([P+](c2ccccc2)(c2ccccc2)c2ccccc2)cc1.c1ccc([P+](c2ccccc2)(c2ccccc2)c2ccccc2)cc1 [PPh4—Mo2O2S2-EDTA] | ≥ 100 | 59.8 ± 26.4 | ≥ 100 |  |  | 
5 | O=C([O-])CN(CCN(CC(=O)[O-])CC(=O)[O-])CC(=O)[O-].[O]=[Mo+]12[S][Mo+]1(=[O])[S]2 [[Mo2O2S2-EDTA]^2−] |  |  |  | good stability | no sign of decomposition | 
6 | [Li] [lithium] |  |  |  |  |  | Serum lithium concentration at which toxicity appears [5]: greater than 2 mmol/l
